This is an account of results in US20090068125A1, “TREATMENT FOR MUCOSITIS” (HEPTAGEN LTD, priority 2005, published 2009).

Data set [1] has as its system human epidermal keratinocytes (HEK). Kind of data set: Inhibition of human epidermal keratinocyte proliferation (AlamarBlue reduction). Type of data set: cell-based. To be noted: two typical experiments (FIG. 1), 0.1 to 100 microM adenosine, 2 days incubation, AlamarBlue fluorescence. From the text:
Cryopreserved human epidermal keratinocytes (HEK) isolated from skin were obtained from TCS Cellworks, Botolph Claydon, Buckingham, MK18 2LR, UK. Cells were maintained in EpiLife, a defined basal medium designed for human keratinocytes supplemented with selected hormones and growth factors (TCS Cellworks). […] Proliferating cultures were trypsinised, harvested, treated with a trypsin inhibitor and resuspended in growth medium. The viable cells were counted then replated into 24 or 96 well cell culture plates at a density of approximately 2,500 cells/cm2. Cells were incubated overnight at 37° C. at 5% CO2 to allow recovery, the spent medium aspirated from the wells and replaced with fresh growth medium in the presence or absence of adenosine. Adenosine was obtained from Sigma-Aldrich and made up as a 10 mM stock solution in DMSO. Serial dilutions were made in the growth medium and added to the cells to give final concentrations ranging from 0.1 to 100 microM, and the cells returned to the incubator for 2 days. AlamarBlue 2% v/v was added to the wells and reduction measured fluorometrically using a Molecular Dynamics BioLumin 9600 microtitre plate reader using excitation wavelength at 530 nm and […] wavelength at 590 nm. Control experiments in which compounds were not added were carried out to examine the normal time-scale of proliferation. […]

For data set [2] the following is noted: cited from earlier work.

The structures appear in SMILES notation. Where only a bound is given, the exact number is not on record here.

With `Nc1ncnc2c1ncn2[C@@H]1O[C@H](CO)[C@@H](O)[C@H]1O` [Adenosine], the EC50 in data set [1] (Homo sapiens, Keratinocyte, 48 h) turned out to be 1700 nM; in data set [1] it was 1100 nM. Moreover, the “half-life in the circulation” value in data set [2] is reported as under 10 s.
